Measurements as given in US20240067632A1, “WEE1 Degrading Compounds and Uses Thereof” (Bristol-Myers Squibb Company, priority 2022, published 2024).
Where two headings read alike, the source gives them in different places.

Key:
WEE1 = target: T1, WEE1 (Homo sapiens, UniProt P30291+Q96SW2); test: WEE1-ePL degradation assay (LentiX-WEE1-ePL-GSPT1-ND cells, InCELL Hunter luminescence, 4 h); assay type: cell-based; settings: 293T-LentiX WEE1-ePL cells; for DC50: read-out: 293T-LentiX WEE1-ePL Degradation 4 hr (EC50)
T1 construct: C-terminal ePL-tagged (DiscoverX, Fremont, CA) full-length WEE1 expression construct; expressed in transfected cells; host or cells: LentiX-HEK293T (Invitrogen), lentiviral transduction; co-expressing GSPT1-GN (G576N, lacking the first 158 amino acids)
Procedure, shortened: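 First, compounds were pre-plated as 10-point, 3-fold dilutions (top 1 uM or 10 uM) with DMSO control; next, WEE1-ePL-expressing HEK293T cells were added and held 4 h at 37 °C; finally, InCELL Hunter reagent was applied for 30 min before luminescence reading. A 4PL fit gave EC50 and Ymin.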

MKN45 cells = test: MKN45 cell proliferation assay (Cell-Titer-Glo, 120 h); assay type: cell-based; settings: for EC50: Homo sapiens, MKN-45, 120 h, Cell-Titer-Glo, read-out: MKN45 Cell Prolif. 120 hr (EC50); for MKN45 Cell Prolif. 120 hr (Ymin-Obs): minimal percent of DMSO control observed in the concentrations tested
Procedure, shortened: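 Cells seeded at 400/well onto pre-printed 10-point half-log dilutions (top 1 or 10 uM, 0.1% DMSO final), in triplicate, and grown 120 h at 37 C. Viability by Cell-Titer-Glo luminescence, blank-subtracted and normalised to DMSO; EC50 from four-parameter logistic fit, with observed minimal % of control recorded as Ymin-obs.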

[1] = lower limit of the fit (0 = luciferase inhibitor, Ymax = DMSO control)
[2] = lower limit of the fit (Ymin=0 luciferase inhibitor, Ymax DMSO control)

Row | Structure (SMILES) | 293T-LentiX WEE1-ePL Degradation 4 hr (Ymin) (WEE1; [1]) | DC50 (WEE1) [nM] | EC50 (MKN45 cells; growth inhibition) [nM] | MKN45 Cell Prolif. 120 hr (Ymin-Obs) (MKN45 cells) | 293T-LentiX WEE1-ePL Degradation 4 hr (Ymin) (WEE1; [2]) | EC50 (MKN45 cells) [nM]
1 | N#Cc1ccc2cc(CN3CC[C@H](Oc4ccc5c(c4F)CN(C4CCC(=O)NC4=O)C5=O)C3)ccc2n1 (stereo partly drawn) [6-{[(3S)-3-{[2-(2,6-dioxopiperidin-3-yl)-4-fluoro-1-oxo-2,3-dihydro-1H-isoindol-5-yl]oxy}pyrrolidin-1-yl]methyl}quinoline-2-carbonitrile] | 47 | 61.5 | 1430 | 62.465 | – | –
2 | N#Cc1ccc2cc(CN3CC[C@H](Oc4cc5c(cc4F)C(=O)N(C4CCC(=O)NC4=O)C5)C3)ccc2n1 (stereo partly drawn) [6-{[(3S)-3-{[2-(2,6-dioxopiperidin-3-yl)-6-fluoro-1-oxo-2,3-dihydro-1H-isoindol-5-yl]oxy}pyrrolidin-1-yl]methyl}quinoline-2-carbonitrile] | 30.5 | 5.28 | 23.8 | 8.55 | – | –
3 | N#Cc1ccc2cc(CN3CC[C@H](Oc4cc(F)c5c(c4)CN(C4CCC(=O)NC4=O)C5=O)C3)ccc2n1 (stereo partly drawn) [6-{[(3S)-3-{[2-(2,6-dioxopiperidin-3-yl)-7-fluoro-1-oxo-2,3-dihydro-1H-isoindol-5-yl]oxy}pyrrolidin-1-yl]methyl}quinoline-2-carbonitrile] | 100.5 | – | > 10000 | 84.865 | – | –
4 | N#Cc1ccc2cc(CN3C[C@@H](Oc4ccc5c(c4)CN(C4CCC(=O)NC4=O)C5=O)C(F)(F)C3)ccc2n1 (stereo partly drawn) [6-{[(4R)-4-{[2-(2,6-dioxopiperidin-3-yl)-1-oxo-2,3-dihydro-1H-isoindol-5-yl]oxy}-3,3-difluoropyrrolidin-1-yl]methyl}quinoline-2-carbonitrile] | 30.83 | 20.2 | 22.9 | 22.8 | – | –
5 | O=C1CC[C@@H](N2Cc3cc(O[C@H]4CCN(Cc5ccc6ncccc6c5)C4)ccc3C2=O)C(=O)N1 [(3R)-3-(1-oxo-5-{[(3S)-1-[(quinolin-6-yl)methyl]pyrrolidin-3-yl]oxy}-2,3-dihydro-1H-isoindol-2-yl)piperidine-2,6-dione] | 26.94 | 3.55 | 26.5 | 12.45 | – | –
6 | O=C1CC[C@@H](N2Cc3cc(O[C@H]4CCN(Cc5ccc6nc(N7CCOCC7)ncc6c5)C4)ccc3C2=O)C(=O)N1 [(3R)-3-(5-{[(3S)-1-{[2-(morpholin-4-yl)quinazolin-6-yl]methyl}pyrrolidin-3-yl]oxy}-1-oxo-2,3-dihydro-1H-isoindol-2-yl)piperidine-2,6-dione] | – | 46.3 | – | 17.43 | 31.07 | 23.8
7 | O=C1CC[C@@H](N2Cc3cc(O[C@H]4CCN(Cc5ccc6nc(C7CCOCC7)ccc6c5)C4)ccc3C2=O)C(=O)N1 [(3R)-3-(5-{[(3S)-1-{[2-(oxan-4-yl)quinolin-6-yl]methyl}pyrrolidin-3-yl]oxy}-1-oxo-2,3-dihydro-1H-isoindol-2-yl)piperidine-2,6-dione] | 33 | 6.75 | 6.12 | 9.677 | – | –
8 | O=C1CC[C@@H](N2Cc3cc(O[C@H]4CCN(Cc5cc(F)c6nc(C7CCOCC7)ccc6c5)C4)ccc3C2=O)C(=O)N1 [(3R)-3-(5-{[(3S)-1-{[8-fluoro-2-(oxan-4-yl)quinolin-6-yl]methyl}pyrrolidin-3-yl]oxy}-1-oxo-2,3-dihydro-1H-isoindol-2-yl)piperidine-2,6-dione] | – | 9.49 | – | 9.2 | 32.17 | 2.19
9 | O=C1CC[C@H](N2Cc3cc(O[C@H]4CCN(Cc5ccc6nc([C@H]7CCOC7)ncc6c5)C4)ccc3C2=O)C(=O)N1 [(3S)-3-(1-oxo-5-{[(3S)-1-({2-[(3R)-oxolan-3-yl]quinazolin-6-yl}methyl)pyrrolidin-3-yl]oxy}-2,3-dihydro-1H-isoindol-2-yl)piperidine-2,6-dione] | 31 | 17.8 | 14.6 | 8.266 | – | –
10 | O=C1CC[C@H](N2Cc3cc(O[C@H]4CCN(Cc5ccc6nc([C@H]7CCOC7)ccc6c5)C4)ccc3C2=O)C(=O)N1 [(3S)-3-(1-oxo-5-{[(3S)-1-({2-[(3R)-oxolan-3-yl]quinolin-6-yl}methyl)pyrrolidin-3-yl]oxy}-2,3-dihydro-1H-isoindol-2-yl)piperidine-2,6-dione] | 35.5 | 2.59 | 2.68 | 8.547 | – | –
11 | O=C1CC[C@H](N2Cc3cc(O[C@H]4CCN(Cc5ccc6nc([C@@H]7CCOC7)ccc6c5)C4)ccc3C2=O)C(=O)N1 [(3S)-3-(1-oxo-5-{[(3S)-1-({2-[(3S)-oxolan-3-yl]quinolin-6-yl}methyl)pyrrolidin-3-yl]oxy}-2,3-dihydro-1H-isoindol-2-yl)piperidine-2,6-dione] | 30 | 2.13 | 4.09 | 9.489 | – | –
12 | O=C1CC[C@H](N2Cc3cc(O[C@H]4CCN(Cc5ccc6ncccc6c5)C4)ccc3C2=O)C(=O)N1 [(3S)-3-(1-oxo-5-{[(3S)-1-[(quinolin-6-yl)methyl]pyrrolidin-3-yl]oxy}-2,3-dihydro-1H-isoindol-2-yl)piperidine-2,6-dione] | 26.52 | 7.42 | 31.4 | 12.265 | – | –
13 | O=C1CC[C@H](N2Cc3cc(O[C@H]4CCN(Cc5ccc6nc(N7CCCC7=O)ccc6c5)C4)ccc3C2=O)C(=O)N1 [(3S)-3-(1-oxo-5-{[(3S)-1-{[2-(2-oxopyrrolidin-1-yl)quinolin-6-yl]methyl}pyrrolidin-3-yl]oxy}-2,3-dihydro-1H-isoindol-2-yl)piperidine-2,6-dione] | 40 | 1.51 | 2.82 | 8.56 | – | –
14 | O=C1CC[C@H](N2Cc3cc(O[C@H]4CCN(Cc5ccc6nc(N7CCCC7)ncc6c5)C4)ccc3C2=O)C(=O)N1 [(3S)-3-(1-oxo-5-{[(3S)-1-{[2-(pyrrolidin-1-yl)quinazolin-6-yl]methyl}pyrrolidin-3-yl]oxy}-2,3-dihydro-1H-isoindol-2-yl)piperidine-2,6-dione] | – | 6.04 | – | 21.92 | 43.18 | 26.9
15 | O=C1CC[C@H](N2Cc3cc(O[C@@H]4CN(Cc5ccc6nc([C@H]7CCOC7)ccc6c5)CC4(F)F)ccc3C2=O)C(=O)N1 [(3S)-3-(5-{[(3R)-4,4-difluoro-1-({2-[(3R)-oxolan-3-yl]quinolin-6-yl}methyl)pyrrolidin-3-yl]oxy}-1-oxo-2,3-dihydro-1H-isoindol-2-yl)piperidine-2,6-dione] | – | 11.7 | – | 8.319 | 28.37 | 7.63
16 | O=C1CC[C@H](N2Cc3cc(O[C@@H]4CN(Cc5ccc6nc([C@@H]7CCOC7)ccc6c5)CC4(F)F)ccc3C2=O)C(=O)N1 [(3S)-3-(5-{[(3R)-4,4-difluoro-1-({2-[(3S)-oxolan-3-yl]quinolin-6-yl}methyl)pyrrolidin-3-yl]oxy}-1-oxo-2,3-dihydro-1H-isoindol-2-yl)piperidine-2,6-dione] | – | 8.72 | – | 8.017 | 30.03 | 6.36
